According to publication PMC4209162, “Specific aromatic foldamers potently inhibit spontaneous and seeded Aβ42 and Aβ43 fibril assembly” (Biochemical Journal, 2014):
Entries after “also recorded” stand apart in the source; their conditions may differ.

Experiments:
[1] = biological target: T1, Aβ42 (Homo sapiens, UniProt P05067); assay: Spontaneous Aβ42 fibrillization (ThT fluorescence, EM); type: biochemical; settings: for Inhibition of spontaneous Aβ42 fibrillization: Aβ42 5 μM, foldamer 10 μM, 8 h, agitation, ThT fluorescence (EM 4 h); for Inhibition of spontaneous Aβ42 fibrillization / Inhibition of spontaneous Aβ42 fibrillization, different assembly conditions: 25°C; for Inhibition of spontaneous Aβ42 fibrillization, different assembly conditions: Aβ prepared without DMSO, PBE pH 8, Aβ42 5 μM, foldamer 20 μM, 16 h, ThT
T1 sequence (P05067 672-713 limits assumed): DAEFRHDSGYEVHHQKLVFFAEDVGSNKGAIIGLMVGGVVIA

[2] = biological target: T2, Aβ43 (Homo sapiens, UniProt P05067); assay: Spontaneous Aβ43 fibrillization (ThT fluorescence, EM); type: biochemical; settings: for Inhibition of spontaneous Aβ43 fibrillization: foldamer 5, 10 or 20 μM, 0–8 h, EM 10 μM 4 h; for Inhibition of spontaneous Aβ43 fibrillization / Inhibition of spontaneous Aβ43 fibrillization, different assembly conditions: ThT; for Inhibition of spontaneous Aβ43 fibrillization, different assembly conditions: Aβ prepared without DMSO, PBE pH 8, Aβ43 5 μM, foldamer 20 μM, 16 h
T2 sequence (P05067 672-714 limits assumed): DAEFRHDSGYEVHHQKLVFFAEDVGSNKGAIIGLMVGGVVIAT

[3] = biological target: Aβ43 oligomers (Homo sapiens, UniProt P05067); assay: A11-reactive Aβ43 conformers (ELISA); type: biochemical; settings: Aβ43 5 μM, foldamer 20 μM, 25°C; for Effect on A11-reactive Aβ43 conformers after 0.5 h: 0.5 h (end of lag phase); for Effect on A11-reactive Aβ43 conformers after 4 h: 4 h (endpoint of fibrillization)
Aβ43 oligomers, sequence (P05067 672-714 limits assumed): as above

[4] = biological target: T2, Aβ43; assay: Seeded Aβ43 fibrillization (ThT fluorescence, EM); type: biochemical; settings: ThT; for Inhibition of seeded Aβ43 fibrillization: Aβ43 5 μM plus seed 0.1 μM monomer, foldamer 5, 10 or 20 μM, 0–2 h, 25°C, EM; for Inhibition of seeded Aβ43 fibrillization, different assembly conditions: Aβ prepared without DMSO, PBE pH 8, Aβ43 5 μM plus seed 0.1 μM monomer, foldamer 20 μM, 16 h
[5] = biological target: Aβ42 fibrils (Homo sapiens, UniProt P05067); assay: Disassembly of preformed Aβ42 fibrils; type: biochemical; settings: foldamer in 4-fold molar excess, 24 h (results not shown)
Aβ42 fibrils, sequence (P05067 672-713 limits assumed): as the sequence (P05067 672-713 limits assumed) above

[6] = biological target: Aβ42 oligomers (Homo sapiens, UniProt P05067); assay: A11-reactive Aβ42 conformers (ELISA); type: biochemical; settings: Aβ42 5 μM, foldamer 20 μM, 25°C; for Effect on A11-reactive Aβ42 conformers after 0.5 h: 0.5 h (end of lag phase); for Effect on A11-reactive Aβ42 conformers after 4 h: 4 h (endpoint of fibrillization)
Aβ42 oligomers, sequence (P05067 672-713 limits assumed): as above

[7] = system: SH-SY5Y human neuroblastoma cells; assay: Toxicity of Aβ43 conformers to SH-SY5Y cells (MTT reduction, LDH release); type: cell-based; settings: 24 h, MTT and LDH; for Effect on toxicity of Aβ43 conformers after 0.5 h of assembly: Aβ43 5 μM assembled with foldamer 20 μM for 0.5 h; for Effect on toxicity of Aβ43 conformers after 4 h of assembly: Aβ43 5 μM assembled with foldamer 20 μM for 4 h
Experimental: (§1) SH-SY5Y human neuroblastoma cells were maintained in Dulbecco's modified Eagle's medium (DMEM) plus 10 mM Hepes, 10% FBS, 4 mM glutamine, penicillin (200 units/ml) and streptomycin (200 μg/ml) in 5% CO2 at 37°C. Cells were differentiated in serum-free DMEM with N2 supplement and 10 μM all-trans-retinoic acid before use. Cells were plated at (10000 cells/well) in 96-well plates and grown overnight. Medium was removed and Aβ conformers or controls were added and cells were incubated for 24 h at 37°C. Toxicity was assessed using an MTT kit (Tox-1; Sigma) or via lactate dehydrogenase (LDH) release using the CytoTox-ONE™ kit (Promega). Toxicity values were normalized to the buffer control without Aβ.

[8] = biological target: T1, Aβ42; assay: Seeded Aβ42 fibrillization (ThT fluorescence, EM); type: biochemical; settings: for Inhibition of seeded Aβ42 fibrillization: foldamer 5, 10 or 20 μM, 0–2 h, 25°C; for Inhibition of seeded Aβ42 fibrillization, different assembly conditions: Aβ prepared without DMSO, PBE pH 8, Aβ42 5 μM plus seed 0.1 μM monomer, 16 h
[9] = system: SH-SY5Y human neuroblastoma cells; assay: Toxicity of Aβ42 conformers to SH-SY5Y cells (MTT reduction, LDH release); type: cell-based; settings: 24 h, MTT and LDH; for Effect on toxicity of Aβ42 conformers after 0.5 h of assembly: Aβ42 5 μM assembled with foldamer 20 μM for 0.5 h; for Effect on toxicity of Aβ42 conformers after 4 h of assembly: Aβ42 5 μM assembled with foldamer 20 μM for 4 h
Experimental: as §1

[10] = biological target: T3, FUS (Homo sapiens, UniProt P35637); assay: FUS aggregation (turbidity, absorbance at 395 nm); type: biochemical; settings: GST-FUS 5 μM, foldamer 20 μM, plus TEV protease, 25°C, 0–90 min
T3 sequence (P35637 1-526): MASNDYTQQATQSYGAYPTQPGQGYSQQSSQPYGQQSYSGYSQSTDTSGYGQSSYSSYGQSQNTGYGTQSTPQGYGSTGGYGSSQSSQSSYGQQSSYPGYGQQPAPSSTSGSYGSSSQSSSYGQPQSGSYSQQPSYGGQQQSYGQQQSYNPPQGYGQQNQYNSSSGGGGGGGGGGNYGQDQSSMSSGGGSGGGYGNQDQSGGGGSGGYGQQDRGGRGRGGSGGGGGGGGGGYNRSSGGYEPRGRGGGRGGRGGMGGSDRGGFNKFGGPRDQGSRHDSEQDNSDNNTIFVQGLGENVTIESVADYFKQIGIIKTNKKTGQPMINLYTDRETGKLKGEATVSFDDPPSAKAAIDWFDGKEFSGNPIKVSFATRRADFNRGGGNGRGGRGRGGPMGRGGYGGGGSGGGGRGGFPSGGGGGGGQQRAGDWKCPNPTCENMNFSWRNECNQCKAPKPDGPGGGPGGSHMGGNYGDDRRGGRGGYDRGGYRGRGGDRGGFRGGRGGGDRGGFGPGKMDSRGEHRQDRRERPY
Experimental: GST–TEV–FUS was purified as described. Aggregation was initiated by addition of tobbaco etch virus (TEV) protease to GST–TEV–FUS (5 μM) plus or minus foldamer (20 μM) in assembly buffer (50 mM Tris/HCl pH 8, 0.2 M trehalose and 20 mM glutathione). Aggregation was for 0–90 min at 25°C without agitation in a 96-well plate and was assessed by turbidity (absorbance at 395 nm) using a Tecan Infinite M1000 plate reader. No aggregation occurred unless TEV protease was added to separate GST from FUS [58].

[11] = Aβ42 5 μM plus seed 0.1 μM monomer

COc1ccc(NC(=O)[C@H](CCCNC(N)=O)NC(=O)c2cc(NC(=O)[C@H](CCCNC(=N)N)NC(=O)c3cc(NC(=O)[C@H](CCCNC(=N)N)NC(=O)c4cc(NC(=O)[C@@H](N)CCCNC(=N)N)ccc4OC)ccc3OC)ccc2OC)cc1C(N)=O [(Arg-Sal)3-(Cit-Sal)-CONH2]
IC50 [1]: ~1600 nM | IC50 [2]: ~3100 nM

(Arg-Benz)4-CONH2
Inhibition of spontaneous Aβ42 fibrillization [1]: strong inhibitors; also recorded: potent inhibitors | Inhibition of spontaneous Aβ42 fibrillization, different assembly conditions [1]: inhibited | Effect on A11-reactive Aβ43 conformers after 0.5 h [3]: had no effect | Effect on A11-reactive Aβ43 conformers after 4 h [3]: had a similar effect | Inhibition of seeded Aβ43 fibrillization [4]: blocked seeded Aβ43 fibrillization | Inhibition of seeded Aβ43 fibrillization, different assembly conditions [4]: inhibited | Disassembly of Aβ42 fibrils [5]: did not disassemble Aβ42 fibrils | Effect on A11-reactive Aβ42 conformers after 0.5 h [6]: had no effect | Effect on A11-reactive Aβ42 conformers after 4 h [6]: remained at higher levels | Effect on toxicity of Aβ43 conformers after 0.5 h of assembly [7]: had no effect | Effect on toxicity of Aβ43 conformers after 4 h of assembly [7]: enhanced | Extent of seeded Aβ42 fibrillization at 4-fold molar excess of foldamer ([8]; Aβ42 5 μM plus seed 0.1 μM monomer, foldamer 20 μM): some fibrillization occurred | Inhibition of seeded Aβ42 fibrillization [8, 11]: only inhibited seeded Aβ42 fibrillization when present at a 4-fold molar excess over Aβ42 | Inhibition of seeded Aβ42 fibrillization, different assembly conditions ([8]; foldamer 20 μM): inhibited | Major Aβ43 species by EM ([2]; Aβ43 5 μM, foldamer 10 μM, 4 h, 25°C): small oligomers were the major species | Inhibition of spontaneous Aβ43 fibrillization ([2]; Aβ43 5 μM, 25°C): blocked spontaneous Aβ43 fibrillization | Inhibition of spontaneous Aβ43 fibrillization, different assembly conditions ([2]; 25°C): inhibited | Effect on toxicity of Aβ42 conformers after 0.5 h of assembly [9]: had no effect | Effect on toxicity of Aβ42 conformers after 4 h of assembly [9]: enhanced | Inhibition of FUS aggregation [10]: did not inhibit FUS aggregation

(Arg-Sal)2-(Cit-Sal)-(Arg-Sal)-CONH2
Inhibition of spontaneous Aβ42 fibrillization [1]: ineffective

(Arg-Sal-Cit-Sal)2-CONH2
Inhibition of spontaneous Aβ42 fibrillization [1]: ineffective

(Cit-Sal)2-(Arg-Sal)-(Cit-Sal)-CONH2
Inhibition of spontaneous Aβ42 fibrillization [1]: ineffective

(Cit-Sal)4-CONH2
Inhibition of spontaneous Aβ42 fibrillization [1]: ineffective | Inhibition of spontaneous Aβ42 fibrillization, different assembly conditions [1]: had no effect | Effect on A11-reactive Aβ43 conformers after 0.5 h [3]: had no effect | Effect on A11-reactive Aβ43 conformers after 4 h [3]: had no effect | Inhibition of seeded Aβ43 fibrillization, different assembly conditions [4]: had no effect | Effect on A11-reactive Aβ42 conformers after 0.5 h [6]: had no effect | Effect on A11-reactive Aβ42 conformers after 4 h [6]: had no effect | Effect on toxicity of Aβ43 conformers after 0.5 h of assembly [7]: had no effect on toxicity | Effect on toxicity of Aβ43 conformers after 4 h of assembly [7]: had no effect on toxicity | Inhibition of seeded Aβ42 fibrillization, different assembly conditions ([8]; foldamer 20 μM): had no effect | Inhibition of spontaneous Aβ43 fibrillization, different assembly conditions ([2]; 25°C): had no effect | Effect on toxicity of Aβ42 conformers after 0.5 h of assembly [9]: had no effect on toxicity | Effect on toxicity of Aβ42 conformers after 4 h of assembly [9]: had no effect on toxicity

(Cit-Sal)-(Arg-Sal)-(Cit-Sal)2-CONH2
Inhibition of spontaneous Aβ42 fibrillization [1]: ineffective

(Lys-Sal)2-CONH2
Inhibition of spontaneous Aβ42 fibrillization [1]: failed to inhibit assembly

(Lys-Sal)3-CONH2
Inhibition of spontaneous Aβ42 fibrillization [1]: failed to inhibit assembly

(Lys-Sal)4-COMe
Inhibition of spontaneous Aβ42 fibrillization [1]: ineffective

(Lys-Sal)4-CONH2
Inhibition of spontaneous Aβ42 fibrillization [1]: ineffective

(Lys-Sal)4-COOH
Inhibition of spontaneous Aβ42 fibrillization [1]: ineffective

(Lys-Sal)4-COβAla
Inhibition of spontaneous Aβ42 fibrillization [1]: ineffective

Ac-(Lys-Sal)2-CONH2
Inhibition of spontaneous Aβ42 fibrillization [1]: failed to inhibit assembly

Ac-(Lys-Sal)3-CONH2
Inhibition of spontaneous Aβ42 fibrillization [1]: failed to inhibit assembly

Ac-Sal-(Lys-Sal)3-CONH2
Inhibition of spontaneous Aβ42 fibrillization [1]: strong inhibitors; also recorded: potent inhibitors | Inhibition of spontaneous Aβ42 fibrillization, different assembly conditions [1]: inhibited | Effect on A11-reactive Aβ43 conformers after 0.5 h [3]: had no effect | Effect on A11-reactive Aβ43 conformers after 4 h [3]: declined more extensively | Inhibition of seeded Aβ43 fibrillization [4]: did not inhibit seeded Aβ43 fibrillization | Disassembly of Aβ42 fibrils [5]: did not disassemble Aβ42 fibrils | Effect on A11-reactive Aβ42 conformers after 0.5 h [6]: had no effect | Effect on A11-reactive Aβ42 conformers after 4 h [6]: remained at higher levels | Effect on toxicity of Aβ43 conformers after 0.5 h of assembly [7]: neither Sal-(Lys-Sal)3-CONH2 nor Ac-Sal-(Lys-Sal)3-CONH2 affected the toxicity | Effect on toxicity of Aβ43 conformers after 4 h of assembly [7]: neither Sal-(Lys-Sal)3-CONH2 nor Ac-Sal-(Lys-Sal)3-CONH2 affected the toxicity | Inhibition of seeded Aβ42 fibrillization [8, 11]: inhibited seeded Aβ42 fibrillization at all concentrations tested | Inhibition of seeded Aβ42 fibrillization, different assembly conditions ([8]; foldamer 20 μM): inhibited | Inhibition of spontaneous Aβ43 fibrillization ([2]; Aβ43 5 μM, 25°C): did not block spontaneous Aβ43 fibrillization | Effect on toxicity of Aβ42 conformers after 0.5 h of assembly [9]: had no effect | Effect on toxicity of Aβ42 conformers after 4 h of assembly [9]: enhanced | Inhibition of FUS aggregation [10]: did not inhibit FUS aggregation

Sal-(Lys-Sal)2-CONH2
Inhibition of spontaneous Aβ42 fibrillization [1]: failed to inhibit assembly
